Source: EPA's ToxValDB 9.5 (doi:10.2903/j.efsa.2010.1771)
≈ marks a conversion by molar mass, not a printed value.

What was measured:
Anas platyrhynchos = conditions: short-term; oral; feed; mortality
Apis mellifera = conditions: acute; duration: 48 hours; oral; unspecified; mortality
Canidae = conditions: oral, Dog Other, hematological
Daphnia magna = conditions: chronic/long-term; duration: 21 days; reproduction
Tagia sp. = conditions: acute; mortality
Typhlodromus pyri = conditions: not reported; mortality

For `CCSC(C)CC1CC(=O)C(C(CC)=NOC/C=C/Cl)=C(O)C1` (stereo not drawn) [Clethodim], the LC50 (Anas platyrhynchos) was > 851 mg/kg-day, the LD50 (Apis mellifera) was > 43 µg/piece and the NOAEL (Canidae; chronic, duration: 1 years) was 21 mg/kg-day. For the same compound, the NOAEL (Canidae; subchronic, duration: 90 days) was 21 mg/kg-day, the LD50 (Colinus virginianus; acute, oral, mortality) was > 1640 mg/kg and the NOEL (Colinus virginianus; reproduction developmental, reproduction) was 17 mg/kg-day. For the same compound, the NOEC (Daphnia magna) was 49 mg/L, the LC50 (Oncorhynchus mykiss; acute, duration: 96 hours, mortality) was 25 µg/mL (≈ 69.5 µM) and the NOEC (Oncorhynchus mykiss; chronic/long-term, duration: 21 days) was 3.9 mg/L. For the same compound, the LD50 (Rattus norvegicus; acute, oral, mortality) was 1130 mg/kg, the NOAEL (Rattus norvegicus; chronic, duration: 2 years, organ weight) was 16 mg/kg-day and the LC50 (Tagia sp.) was 129 mg/kg. The LEL (Typhlodromus pyri) was 9.6 g/ha.
